# In patent US20250296959A1, “B7-H3 TARGETING PEPTIDES AND CONSTRUCTS THEREOF” (Mariana Oncology Inc., priority 2024, published 2025):
# Starred links: 1 amine or outer side, 2 acyl side, 3 side chain; linkers in the order of their positions; H or OH if unused. Positions of bridges follow the written chain, without caps; N, C: chain ends. Non-standard residues stand in square brackets, D forms with d. Residues, ends and D or L forms follow the SMILES beside them. Groups on a side chain read outwards from the residue. *: point of attachment. X2 = O=C(O)CN1CCN(CC(=O)O)CCN(CC(=O)NCCOCCOCCOCCOCC(=O)*)CCN(CC(=O)O)CC1; Ala(piperidin-4-yl) = O=C([C@H](CC1CCN([*:3])CC1)N[*:1])[*:2]; DOTA = O=C(O)CN1CCN(CC(=O)O)CCN(CC(=O)*)CCN(CC(=O)O)CC1; Tyr(SO2F) = N[C@@H](Cc1ccc(OS(=O)(=O)F)cc1)C(=O)O; Trp(5-F) = N[C@@H](Cc1c[nH]c2ccc(F)cc12)C(=O)O; Phe(4-F) = N[C@@H](Cc1ccc(F)cc1)C(=O)O; γGlu = O=C(O)[C@H](CCC(=O)[*:2])N[*:1]; 1Nal = N[C@@H](Cc1cccc2ccccc12)C(=O)O; Ala(4-THP) = N[C@@H](CC1CCOCC1)C(=O)O; Val(3-OH) = CC(C)(O)[C@H](N)C(=O)O; 4Pal = N[C@@H](Cc1ccncc1)C(=O)O; Cha = N[C@@H](CC1CCCCC1)C(=O)O; PEG4 = NCCOCCOCCOCCOCCC(=O)O; Tle = CC(C)(C)[C@H](N)C(=O)O; hLeu = CC(C)CC[C@H](N)C(=O)O; NMeS = CN[C@@H](CO)C(=O)O; Nle = CCCC[C@H](N)C(=O)O; Dab = NCC[C@H](N)C(=O)O; CH2 = C([*:1])[*:2]; AEA = NCCOCC(=O)O
# Molecular target: T1, human 4lg B7-H3 (Homo sapiens, UniProt Q5ZPR3)
# T1 sequence (Q5ZPR3 29-534): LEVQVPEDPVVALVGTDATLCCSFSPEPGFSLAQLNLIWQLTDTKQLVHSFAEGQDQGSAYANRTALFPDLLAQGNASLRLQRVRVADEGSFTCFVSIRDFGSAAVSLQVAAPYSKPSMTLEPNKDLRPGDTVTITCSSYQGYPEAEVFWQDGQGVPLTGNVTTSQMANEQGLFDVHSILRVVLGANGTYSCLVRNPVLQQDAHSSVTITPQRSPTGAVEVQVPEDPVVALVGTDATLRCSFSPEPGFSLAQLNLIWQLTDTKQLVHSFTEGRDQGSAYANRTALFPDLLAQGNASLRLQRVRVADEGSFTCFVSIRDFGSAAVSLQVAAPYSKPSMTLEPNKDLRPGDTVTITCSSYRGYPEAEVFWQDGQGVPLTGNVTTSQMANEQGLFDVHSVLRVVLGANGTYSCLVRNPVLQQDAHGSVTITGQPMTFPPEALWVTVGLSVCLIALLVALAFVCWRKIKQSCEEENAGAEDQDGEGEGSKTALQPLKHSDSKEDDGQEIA
# Assay: Affinity determination by surface plasmon resonance (SPR) to 4Ig B7-H3
# Settings: not given
row,SMILES,Kd [µM]
1,"CC(=O)N[C@@H](CCC(C)C)C(=O)N[C@@H](Cc1ccc(OS(=O)(=O)F)cc1)C(=O)N[C@H]1CSSC[C@@H](C(=O)N[C@@H](Cc2c[nH]c3ccc(F)cc23)C(=O)N[C@@H](Cc2ccccc2)C(=O)N[C@H](C(=O)N[C@H](CCCCNC(=O)CN2CCN(CC(=O)O)CCN(CC(=O)O)CCN(CC(=O)O)CC2)C(=O)O)C(C)(C)O)NC(=O)[C@H](Cc2ccc(O)cc2)NC(=O)[C@H](C(C)C)NC(=O)[C@H](CC(=O)O)NC(=O)[C@H](CC2CCOCC2)NC(=O)[C@H](CC2CCNCC2)NC(=O)CNC(=O)[C@H](C(C)(C)C)NC1=O [compound 478, Ac-hLeu-FSY-C-Tbg-G-PipAla-ThpA-D-V-Y-C-5FW-F-hydroxyVal-dLys(DOTA)-COOH] (Ac-[hLeu][Tyr(SO2F)]C[Tle]G[Ala(piperidin-4-yl)][Ala(4-THP)]DVYC[Trp(5-F)]F[Val(3-OH)][dK](DOTA)-OH; disulfide 3-11)",0.01 to 0.1

# Same assay, conditions: SPR KD—25° C., 4Ig B7-H3; 25° C. flow cell temperature
row,SMILES,Kd [µM]
1,"CC(=O)N[C@@H](CCC(C)C)C(=O)N[C@@H](Cc1ccc(O)cc1)C(=O)N[C@H]1CSSC[C@@H](C(=O)N[C@@H](Cc2c[nH]c3ccc(F)cc23)C(=O)N[C@@H](Cc2ccccc2)C(=O)N2CCC[C@H]2C(=O)N[C@H](CCCCNC(=O)COCCOCCOCCOCCNC(=O)CN2CCN(CC(=O)O)CCN(CC(=O)O)CCN(CC(=O)O)CC2)C(=O)O)NC(=O)[C@H](Cc2ccc(O)cc2)NC(=O)[C@H](C(C)C)NC(=O)[C@H](CC(=O)O)NC(=O)[C@H](CC2CCOCC2)NC(=O)[C@H](CCCCN)NC(=O)CNC(=O)[C@H](C(C)(C)C)NC1=O [compound 307, Ac-hLeu-Y-C-Tbg-G-K-ThpA-D-V-Y-C-5FW-F-Pro-dLys(PEG4-DOTA)-COOH] (Ac-[hLeu]YC[Tle]GK[Ala(4-THP)]DVYC[Trp(5-F)]FP[dK](X2)-OH; disulfide 3-11)",0.001 to 0.01
2,"CCCC[C@H](NC(C)=O)C(=O)N[C@@H](Cc1ccc(O)cc1)C(=O)N[C@H]1CSSC[C@@H](C(=O)N[C@@H](Cc2c[nH]c3ccccc23)C(=O)N[C@@H](Cc2ccccc2)C(=O)N[C@@H](CCN)C(=O)N[C@H](CCCCNC(=O)CN2CCN(CC(=O)O)CCN(CC(=O)O)CCN(CC(=O)O)CC2)C(N)=O)NC(=O)[C@H](Cc2ccc(O)cc2)NC(=O)[C@H](C(C)C)NC(=O)[C@H](CC(=O)O)NC(=O)[C@H](Cc2ccc(O)cc2)NC(=O)[C@H](CCCCN)NC(=O)CNC(=O)[C@H](C(C)C)NC1=O [compound 131, Ac-Nle-Y-C-V-G-K-Y-D-V-Y-C-W-F-Dab-dLys(DOTA)-CONH2] (Ac-[Nle]YCVGKYDVYCWF[Dab][dK](DOTA)-NH2; disulfide 3-11)",0.01 to 0.1
3,"CC(=O)N[C@@H](CCC(C)C)C(=O)N[C@@H](Cc1ccc(O)cc1)C(=O)N[C@H]1CSSC[C@@H](C(=O)N[C@@H](Cc2c[nH]c3ccc(F)cc23)C(=O)N[C@@H](Cc2ccccc2)C(=O)N[C@H](C(=O)N[C@H](CCCCNC(=O)CN2CCN(CC(=O)O)CCN(CC(=O)O)CCN(CC(=O)O)CC2)C(N)=O)[C@@H](C)O)NC(=O)[C@H](Cc2ccc(F)cc2)NC(=O)[C@H](C(C)C)NC(=O)[C@H](CC(=O)O)NC(=O)[C@H](Cc2ccc(O)cc2)NC(=O)[C@H](CCCCN)NC(=O)CNC(=O)[C@H](C(C)C)NC1=O [compound 172, Ac-hLeu-Y-C-V-G-K-Y-D-V-4FPhe-C-5FW-F-Thr-dLys(DOTA)-CONH2] (Ac-[hLeu]YCVGKYDV[Phe(4-F)]C[Trp(5-F)]FT[dK](DOTA)-NH2; disulfide 3-11)",0.001 to 0.01
4,"CC(=O)N[C@@H](CCC(C)C)C(=O)N[C@@H](Cc1ccc(O)cc1)C(=O)N[C@H]1CSSC[C@@H](C(=O)N[C@@H](Cc2cccc3ccccc23)C(=O)N[C@@H](Cc2ccccc2)C(=O)N2CCC[C@H]2C(=O)N[C@H](CCCCNC(=O)CN2CCN(CC(=O)O)CCN(CC(=O)O)CCN(CC(=O)O)CC2)C(N)=O)NC(=O)[C@H](Cc2ccc(O)cc2)NC(=O)[C@H](C(C)C)NC(=O)[C@H](CC(=O)O)NC(=O)[C@H](Cc2ccc(O)cc2)NC(=O)[C@H](CCCCN)NC(=O)CNC(=O)[C@H](C(C)(C)C)NC1=O [compound 244, Ac-hLeu-Y-C-Tbg-G-K-Y-D-V-Y-C-1Nal-F-Pro-dLys(DOTA)-CONH2] (Ac-[hLeu]YC[Tle]GKYDVYC[1Nal]FP[dK](DOTA)-NH2; disulfide 3-11)",< 0.001
5,"CC(=O)N[C@@H](CCC(C)C)C(=O)N[C@@H](Cc1ccc(O)cc1)C(=O)N[C@H]1CSCSC[C@@H](C(=O)N[C@@H](Cc2cccc3ccccc23)C(=O)N[C@@H](Cc2ccccc2)C(=O)N(C)[C@@H](CO)C(=O)N[C@H](CCCCNC(=O)CN2CCN(CC(=O)O)CCN(CC(=O)O)CCN(CC(=O)O)CC2)C(N)=O)NC(=O)[C@H](Cc2ccc(O)cc2)NC(=O)[C@H](C(C)C)NC(=O)[C@H](CC(=O)O)NC(=O)[C@H](Cc2ccncc2)NC(=O)[C@H](CCCCN)NC(=O)CNC(=O)[C@H](C(C)(C)C)NC1=O [compound 297, Ac-hLeu-Y-C(CH2)-Tbg-G-K-4PyA-D-V-Y-C-1Nal-F-NMeSer-dLys(DOTA)-CONH2] (Ac-[hLeu]YC[Tle]GK[4Pal]DVYC[1Nal]F[NMeS][dK](DOTA)-NH2; linker 3-11 via CH2)",0.1 to 0.3

# Same assay, conditions: SPR KD—37° C., 4Ig B7-H3; 37° C. flow cell temperature
row,SMILES,Kd [µM]
1,"CC(=O)N[C@@H](CCC(C)C)C(=O)N[C@@H](Cc1ccc(O)cc1)C(=O)N[C@H]1CSSC[C@@H](C(=O)N[C@@H](Cc2c[nH]c3ccc(F)cc23)C(=O)N[C@@H](Cc2ccccc2)C(=O)N[C@H](C(=O)N[C@H](CO)C(N)=O)C(C)(C)O)NC(=O)[C@H](Cc2ccc(O)cc2)NC(=O)[C@H](C(C)C)NC(=O)[C@H](CC(=O)O)NC(=O)[C@H](CC2CCN(C(=O)CCOCCOCCOCCOCCNC(=O)CN3CCN(CC(=O)O)CCN(CC(=O)O)CCN(CC(=O)O)CC3)CC2)NC(=O)[C@H](CC2CCNCC2)NC(=O)CNC(=O)[C@H](C(C)(C)C)NC1=O [compound 446, Ac-hLeu-Y-C-Tbg-G-PipAla-Pip(PEG4-DOTA)Ala-D-V-Y-C-5FW-F-hydroxyVal-dSer-CONH2] (Ac-[hLeu]YC[Tle]G[Ala(piperidin-4-yl)][Ala(piperidin-4-yl)]([PEG4-DOTA])DVYC[Trp(5-F)]F[Val(3-OH)][dS]-NH2; disulfide 3-11)",< 0.001
2,"CC(=O)N[C@@H](CC1CCCCC1)C(=O)N[C@@H](Cc1ccc(O)cc1)C(=O)N[C@H]1CSSC[C@@H](C(=O)N[C@@H](Cc2c[nH]c3ccc(F)cc23)C(=O)N[C@@H](Cc2ccccc2)C(=O)N[C@H](C(=O)N[C@H](CCCCNC(=O)CN2CCN(CC(=O)O)CCN(CC(=O)O)CCN(CC(=O)O)CC2)C(=O)O)C(C)(C)O)NC(=O)[C@H](Cc2ccc(O)cc2)NC(=O)[C@H](C(C)C)NC(=O)[C@H](CC(=O)O)NC(=O)[C@H](CC2CCOCC2)NC(=O)[C@H](CCCCN)NC(=O)CNC(=O)[C@H](C(C)(C)C)NC1=O [compound 367, Ac-Cha-Y-C-Tbg-G-K-ThpA-D-V-Y-C-5FW-F-hydroxyVal-dLys(DOTA)-COOH] (Ac-[Cha]YC[Tle]GK[Ala(4-THP)]DVYC[Trp(5-F)]F[Val(3-OH)][dK](DOTA)-OH; disulfide 3-11)",0.001 to 0.01
3,"CC(C)CC[C@H](NC(=O)COCCNC(=O)CC[C@H](NC(=O)CN1CCN(CC(=O)O)CCN(CC(=O)O)CCN(CC(=O)O)CC1)C(=O)O)C(=O)N[C@@H](Cc1ccc(O)cc1)C(=O)N[C@H]1CSSC[C@@H](C(=O)N[C@@H](Cc2c[nH]c3ccc(F)cc23)C(=O)N[C@@H](Cc2ccccc2)C(=O)N[C@H](C(N)=O)C(C)(C)O)NC(=O)[C@H](Cc2ccc(O)cc2)NC(=O)[C@H](C(C)C)NC(=O)[C@H](CC(=O)O)NC(=O)[C@H](CC2CCOCC2)NC(=O)[C@H](CCCCN)NC(=O)CNC(=O)[C@H](C(C)(C)C)NC1=O [compound 393, DOTA-gE-AEA-hLeu-Y-C-Tbg-G-K-ThpA-D-V-Y-C-5FW-F-hydroxyVal-CONH2] ({DOTA-γGlu-AEA}-[hLeu]YC[Tle]GK[Ala(4-THP)]DVYC[Trp(5-F)]F[Val(3-OH)]-NH2; disulfide 3-11)",0.001 to 0.01
